EC50 data for 19 compounds are collected here from US11951094B2, “TLR2 modulator compounds, pharmaceutical compositions and uses thereof” (Axial Therapeutics, Inc., priority 2020, dated 2024).

Sequence of TLR2 (O60603 21-784): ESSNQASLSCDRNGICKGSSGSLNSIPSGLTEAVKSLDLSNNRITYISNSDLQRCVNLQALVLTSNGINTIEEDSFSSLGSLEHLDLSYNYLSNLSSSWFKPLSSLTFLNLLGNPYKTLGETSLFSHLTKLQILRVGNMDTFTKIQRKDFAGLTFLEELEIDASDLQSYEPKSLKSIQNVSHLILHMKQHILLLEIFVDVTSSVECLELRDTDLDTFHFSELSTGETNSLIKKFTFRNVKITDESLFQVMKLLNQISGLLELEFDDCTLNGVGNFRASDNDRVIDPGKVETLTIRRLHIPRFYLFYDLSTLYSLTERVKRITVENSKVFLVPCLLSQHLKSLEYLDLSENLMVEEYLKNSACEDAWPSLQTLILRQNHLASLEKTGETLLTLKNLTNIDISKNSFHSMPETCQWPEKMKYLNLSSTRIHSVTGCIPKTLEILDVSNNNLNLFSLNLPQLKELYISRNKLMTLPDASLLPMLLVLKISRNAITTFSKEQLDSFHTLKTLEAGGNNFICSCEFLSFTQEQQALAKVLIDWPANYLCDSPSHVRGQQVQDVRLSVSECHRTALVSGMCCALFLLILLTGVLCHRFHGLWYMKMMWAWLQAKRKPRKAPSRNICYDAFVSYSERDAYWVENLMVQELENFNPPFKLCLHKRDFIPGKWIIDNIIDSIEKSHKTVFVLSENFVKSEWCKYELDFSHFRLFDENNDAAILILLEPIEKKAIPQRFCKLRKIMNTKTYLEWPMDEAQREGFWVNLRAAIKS

This assay deals with TLR2 (Homo sapiens, UniProt O60603). Briefly: TLR2 agonist screening assay, HEK-Blue TLR2 reporter cell line (NF-kB-driven SEAP, absorbance at 600 nm). Format: cell-based. Set-up: host or cells: HEK-293 (HEK-Blue TLR2 reporter cell line). The note with it: HEK-Blue TLR2 reporter cells, agonist mode; average of all runs (Table 4). An outline of the steps:
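HEK-293 cells expressing TLR2 with NF-kB-driven SEAP were plated at 40,000 per well. After 16-24 h, they were treated overnight with diluted agonists in detection medium (1% DMSO final). Absorbance at 600 nm was read, and EC50 values were fitted.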
For `CCCCCCCCCCCCCNC(=O)N[C@H]1CN(c2nc3cc(C(=O)N4C[C@@H](C(=O)N[C@H]5C[C@@H]5c5ccccc5)[C@H](C(=O)N[C@H]5C[C@@H]5c5ccccc5)C4)ccc3o2)C[C@@H]1OC` [Compound 245, (3S,4S)-1-(2-((3S,4S)-3-methoxy-4-(3-tridecylureido)pyrrolidin-1-yl)benzo[d]oxazole-5-carbonyl)-N3,N4-bis((1S,2R)-2-phenylcyclopropyl)pyrrolidine-3,4-dicarboxamide], the EC50 was over 1000 nM.
With `CCCCCCCCCC(=O)N[C@@H](CNc1nc2cc(C(=O)N3C[C@@H](C(=O)N[C@H]4C[C@@H]4c4ccccc4)[C@H](C(=O)N[C@H]4C[C@@H]4c4ccccc4)C3)ccc2o1)C(=O)NCCCCCC` [Compound 246, (3S,4S)-1-(2-(((S)-2-decanamido-3-(hexylamino)-3-oxopropyl)amino)benzo[d]oxazole-5-carbonyl)-N3,N4-bis((1S,2R)-2-phenylcyclopropyl)pyrrolidine-3,4-dicarboxamide] the figure was over 1000 nM; with `CCCCCCCCCCCCCNC(=O)N[C@H]1CN(c2nc3ccc(C(=O)N4C[C@@H](C(=O)N[C@H]5C[C@@H]5c5ccccc5)[C@H](C(=O)N[C@H]5C[C@@H]5c5ccccc5)C4)cc3o2)C[C@@H]1OC` [Compound 247, (3S,4S)-1-(2-((3S,4S)-3-methoxy-4-(3-tridecylureido)pyrrolidin-1-yl)benzo[d]oxazole-6-carbonyl)-N3,N4-bis((1S,2R)-2-phenylcyclopropyl)pyrrolidine-3,4-dicarboxamide], over 1000 nM; with `CCCCCCCCCC(=O)NC(Cn1cnc2ccc(C(=O)N3C[C@@H](C(=O)N[C@H]4C[C@@H]4c4ccccc4)[C@H](C(=O)N[C@H]4C[C@@H]4c4ccccc4)C3)cc2c1=O)C(=O)NCCCCCC` (stereo partly drawn) [Compound 248, (3S,4S)-1-(3-(2-decanamido-3-(hexylamino)-3-oxopropyl)-4-oxo-3,4-dihydroquinazoline-6-carbonyl)-N3,N4-bis((1S,2R)-2-phenylcyclopropyl)pyrrolidine-3,4-dicarboxamide], over 1000 nM.
To `CCCCCCCCCC(=O)N[C@@H](Cc1nc(-c2ccc(C(=O)N3C[C@@H](C(=O)N[C@H]4C[C@@H]4c4ccccc4)[C@H](C(=O)N[C@H]4C[C@@H]4c4ccccc4)C3)cc2)no1)C(=O)NCCCCCC` [Compound 249, (3S,4S)-1-(4-(5-((S)-2-decanamido-3-(hexylamino)-3-oxopropyl)-1,2,4-oxadiazol-3-yl)benzoyl)-N3,N4-bis((1S,2R)-2-phenylcyclopropyl)pyrrolidine-3,4-dicarboxamide] belongs over 1000 nM; to `CCCCCCCCCCCCCCNC(=O)[C@@H]1CN(C(=O)c2ccc(C(=O)N3C[C@@H](C(=O)N[C@H]4C[C@@H]4c4ccccc4)[C@H](C(=O)N[C@H]4C[C@@H]4c4ccccc4)C3)cc2)CCN1C(=O)C(C)C` [Compound 250, (3S,4S)-1-(4-((S)-4-isobutyryl-3-(tetradecylcarbamoyl)piperazine-1-carbonyl)benzoyl)-N3,N4-bis((1S,2R)-2-phenylcyclopropyl)pyrrolidine-3,4-dicarboxamide], over 1000 nM; to `CCCCCCCCCCCCCCNC(=O)[C@@H]1CN(C(=O)c2ccc(C(=O)N3C[C@@H](C(=O)N[C@H]4C[C@@H]4c4ccccc4)[C@H](C(=O)N[C@H]4C[C@@H]4c4ccccc4)C3)cc2)CCN1C(=O)C(C)(C)C` [Compound 251, (3S,4S)—N3,N4-bis((1S,2R)-2-phenylcyclopropyl)-1-(4-((S)-4-pivaloyl-3-(tetradecylcarbamoyl)piperazine-1-carbonyl)benzoyl)pyrrolidine-3,4-dicarboxamide], over 1000 nM.
With `CCCCCCCCCCCCCCNC(=O)[C@@H]1CN(C(=O)c2ccc(C(=O)N3C[C@@H](C(=O)N[C@H]4C[C@@H]4c4ccccc4)[C@H](C(=O)N[C@H]4C[C@@H]4c4ccccc4)C3)cc2)CCN1C(=O)CC(C)C` [Compound 252, (3S,4S)-1-(4-((S)-4-(3-methylbutanoyl)-3-(tetradecylcarbamoyl)piperazine-1-carbonyl)benzoyl)-N3,N4-bis((1S,2R)-2-phenylcyclopropyl)pyrrolidine-3,4-dicarboxamide] the figure was over 1000 nM.
`CCCCCCCCCCCCCCNC(=O)[C@@H]1CN(C(=O)c2ccc(C(=O)N3C[C@@H](C(=O)N[C@H]4C[C@@H]4c4ccccc4)[C@H](C(=O)N[C@H]4C[C@@H]4c4ccccc4)C3)cc2)CCN1C(=O)CC(C)(C)C` [Compound 253, (3S,4S)-1-(4-((S)-4-(3,3-dimethylbutanoyl)-3-(tetradecylcarbamoyl)piperazine-1-carbonyl)benzoyl)-N3,N4-bis((1S,2R)-2-phenylcyclopropyl)pyrrolidine-3,4-dicarboxamide] had an EC50 of over 1000 nM.
To `CCCCCCCCCCCCCNC(=O)[C@@H]1CN(C(=O)c2ccc(C(=O)N3C[C@@H](C(=O)N[C@H]4C[C@@H]4c4ccccc4)[C@H](C(=O)N[C@H]4C[C@@H]4c4ccccc4)C3)cc2)CCN1C(C)=O` [Compound 254, (3S,4S)-1-(4-((S)-4-acetyl-3-(tridecylcarbamoyl)piperazine-1-carbonyl)benzoyl)-N3,N4-bis((1S,2R)-2-phenylcyclopropyl)pyrrolidine-3,4-dicarboxamide] belongs over 1000 nM; to `CCCCCCCCCCCCNC(=O)[C@@H]1CN(C(=O)c2ccc(C(=O)N3C[C@@H](C(=O)N[C@H]4C[C@@H]4c4ccccc4)[C@H](C(=O)N[C@H]4C[C@@H]4c4ccccc4)C3)cc2)CCN1C(C)=O` [Compound 255, (3S,4S)-1-(4-((S)-4-acetyl-3-(dodecylcarbamoyl)piperazine-1-carbonyl)benzoyl)-N3,N4-bis((1S,2R)-2-phenylcyclopropyl)pyrrolidine-3,4-dicarboxamide], over 1000 nM; to `CCCCCCCCCCCNC(=O)[C@@H]1CN(C(=O)c2ccc(C(=O)N3C[C@@H](C(=O)N[C@H]4C[C@@H]4c4ccccc4)[C@H](C(=O)N[C@H]4C[C@@H]4c4ccccc4)C3)cc2)CCN1C(C)=O` [Compound 256, (3S,4S)-1-(4-((S)-4-acetyl-3-(undecylcarbamoyl)piperazine-1-carbonyl)benzoyl)-N3,N4-bis((1S,2R)-2-phenylcyclopropyl) pyrrolidine-3,4-dicarboxamide], over 1000 nM.
Consider `CCCCCCCCCNC(=O)[C@@H]1CN(C(=O)c2ccc(C(=O)N3C[C@@H](C(=O)N[C@H]4C[C@@H]4c4ccccc4)[C@H](C(=O)N[C@H]4C[C@@H]4c4ccccc4)C3)cc2)CCN1C(C)=O` [Compound 257, (3S,4S)-1-(4-((S)-4-acetyl-3-(nonylcarbamoyl)piperazine-1-carbonyl)benzoyl)-N3,N4-bis((1S,2R)-2-phenylcyclopropyl)pyrrolidine-3,4-dicarboxamide], for which the EC50 is 351 to 1000 nM.
On to `CCCCCCCNC(=O)[C@@H]1CN(C(=O)c2ccc(C(=O)N3C[C@@H](C(=O)N[C@H]4C[C@@H]4c4ccccc4)[C@H](C(=O)N[C@H]4C[C@@H]4c4ccccc4)C3)cc2)CCN1C(C)=O` [Compound 258, (3S,4S)-1-(4-((S)-4-acetyl-3-(heptylcarbamoyl)piperazine-1-carbonyl)benzoyl)-N3,N4-bis((1S,2R)-2-phenylcyclopropyl)pyrrolidine-3,4-dicarboxamide], for which the concentration for a half-maximal effect (EC50) was over 1000 nM.
Take `CCCCCCCCCC(=O)N[C@@H](Cc1nnc(-c2ccc(C(=O)N3C[C@@H](C(=O)N[C@H]4C[C@@H]4c4ccccc4)[C@H](C(=O)N[C@H]4C[C@@H]4c4ccccc4)C3)cc2)o1)C(=O)NCCCCCC` [Compound 259, (3S,4S)-1-(4-(5-((S)-2-decanamido-3-(hexylamino)-3-oxopropyl)-1,3,4-oxadiazol-2-yl)benzoyl)-N3,N4-bis((1S,2R)-2-phenylcyclopropyl)pyrrolidine-3,4-dicarboxamide]: the EC50 lay in the range of 351 to 1000 nM.
With `CCCCCCCCCCCCCNC(=O)N[C@H]1CN(c2nnc(-c3ccc(C(=O)N4C[C@@H](C(=O)N[C@H]5C[C@@H]5c5ccccc5)[C@H](C(=O)N[C@H]5C[C@@H]5c5ccccc5)C4)cc3)o2)C[C@@H]1OC` [Compound 260, (3S,4S)-1-(4-(5-((3S,4S)-3-methoxy-4-(3-tridecylureido)pyrrolidin-1-yl)-1,3,4-oxadiazol-2-yl)benzoyl)-N3,N4-bis((1S,2R)-2-phenylcyclopropyl)pyrrolidine-3,4-dicarboxamide] the figure was 0.1 to 50 nM; with `CCCCCCCCCC(=O)N[C@@H](CNc1nc2ccc(C(=O)N3C[C@@H](C(=O)N[C@H]4C[C@@H]4c4ccccc4)[C@H](C(=O)N[C@H]4C[C@@H]4c4ccccc4)C3)cc2o1)C(=O)NCCCCCC` [Compound 261, (3S,4S)-1-(2-(((S)-2-decanamido-3-(hexylamino)-3-oxopropyl)amino)benzo[d]oxazole-6-carbonyl)-N3,N4-bis((1S,2R)-2-phenylcyclopropyl)pyrrolidine-3,4-dicarboxamide], over 1000 nM; with `CCCCCCCCCC(=O)N[C@@H](CNc1nc2ccc(C(=O)N3C[C@@H](C(=O)N[C@H]4C[C@@H]4c4ccccc4)[C@H](C(=O)N[C@H]4C[C@@H]4c4ccccc4)C3)cc2s1)C(=O)NCCCCCC` [Compound 262, (3S,4S)-1-(2-(((S)-2-decanamido-3-(hexylamino)-3-oxopropyl)amino)benzo[d]thiazole-6-carbonyl)-N3,N4-bis((1S,2R)-2-phenylcyclopropyl)pyrrolidine-3,4-dicarboxamide], over 1000 nM.
Turning to `CCCCCCCCCC(=O)N[C@@H](COCc1ccc(C(=O)N2C[C@@H](C(=O)N[C@H]3C[C@@H]3c3ccccc3)[C@H](C(=O)N[C@H]3C[C@@H]3c3ccccc3)C2)cc1)C(=O)NCCCCCC` [Compound 263, (3S,4S)-1-(4-(((S)-2-decanamido-3-(hexylamino)-3-oxopropoxy)methyl)benzoyl)-N3,N4-bis((1S,2R)-2-phenylcyclopropyl) pyrrolidine-3,4-dicarboxamide], the EC50 lay within 351 to 1000 nM.
